Peptide text beside a SMILES is read from it.
Legend:
Type in all cases: cell-based
[1] = test system: Streptococcus pyogenes ATCC 14289
Method: (§1) MIC denotes the lowest concentration of an antimicrobial agent that can inhibit the growth of bacteria after overnight incubation.
(§2) Bacteria were grown in their respective media (Table 2 above) overnight at 37° C. or room temperature with constant shaking and then diluted to 10^6 CFU/ml in their respective medium. Stock solutions of peptides at 0.68 mM were prepared in distilled water. Bacteria and peptide were incubated (50 μl: 50 μl) to make the final peptide concentrations (0.68, 3.4, 6.8, 13.7, 34.1, 68.3, 136.5 μM) in a 96-microtitre plate and incubated for 24 h with constant shaking. […] Absorbance at 600 nm was detected every 3 h up to 24 h to obtain the growth curves. The minimal inhibition concentration (MIC) was defined as the lowest concentration of an antimicrobial agent that could inhibit the growth of bacteria after overnight incubation.

[2] = test system: Gram positive (S. aureus) and negative (E. coli) bacteria; assay: Toxicity screen of synthesized shortlisted SCPs against bacteria; details: synthesized peptides
Source text: Of the remaining SCPs, 1519 (24%) satisfy the CAMP prediction algorithm for AMPs as potential AMPs (FIG. 3). In order to increase the accuracy of prediction, the inventors further limited the shortlisted AMPs to amphipathic and cationic peptides, since they account for the majority of currently known AMPs. There are 430 peptides from the SCP database that satisfied these criteria. To assess the accuracy of the AMP prediction, the inventors synthesized 53 of the shortlisted SCPs and tested their toxicity against both Gram positive (S. aureus) and negative (E. coli) bacteria.

[3] = test system: Escherichia coli ATCC 10536
Method: as §1, §2

[4] = test system: Klebsiella pneumoniae (NDM-1) ATCC BAA-2470
Method: as §1, §2

[5] = test system: Staphylococcus aureus ATCC 6538
Method: as §1, §2

[6] = test system: Aeromonas hydrophila ATCC 49140
Method: as §1, §2

E. tarda = assay: Quantitative proteomic analysis of AMP-treated bacteria; details: 6.8 μM, 1 hr
Method: Bacteria with or without AMP treatment for 1 hr at 6.8 μM were washed and lysed in 8 M of urea for 2 hrs. The lysate was then reduced in 10 mM of dithiothreitol (DTT) in 50 mM of ammonium bicarbonate (30 min at room temperature) and alkylated in 50 mM of […] (IAA) in 50 mM of ammonium bio-carbonate (20 min at room temperature). The samples were diluted 8 times with ammonium bicarbonate (50 mM, pH 8.0) so that the final concentration of urea was 1 M, followed by 2 μg of trypsin (Roche, Mannheim, Germany) for digestion. The mixtures were then incubated overnight at 37° C. and dried in a vacuum centrifuge (Eppendorf Concentrator plus). The peptides were dissolved in 20 μl of 0.1% trifluoroacetic acid (TFA), followed by ZipTip (Millipore, Billerica, Mass., USA) purification that was carried out in accordance with the manufacturer's instructions.
Mass spectrometry (MS) data were collected on an Orbitrap Fusion mass spectrometer coupled on-line with a nanoUPLC EASY-LC-1000 liquid chromatography system (ThermoFisher Scientific™, San Jose, Calif.). The peptides were eluted by using a microcapillary column with 50 cm×75 μm ID, PepMap C18, 2 μm particles (ThermoFisher Scientific™) with 2 to 80% acetonitrile in 0.1% formic acid at a flow rate of ˜350 nL/min for 120 min of gradient. They were ionized through electrospray ionization (positive mode 2.1 kV), and survey scans of peptide precursors from 350 to 1550 m/z were performed at a resolution of 120 K at 200 m/z. Tandem MS was performed by isolation at 1.2 Th with the quadrupole component, fragmentation with normalized collision energy of 35%, and rapid scan MS analysis in the ion trap. The MS2 ion count target was set to 10E4 and the maximum injection time was 250 ms. Only precursors with a charge state of 2-7 were fragmented for the MS2 analysis. The dynamic exclusion duration was set to 60 s with a 10 ppm of low and high mass tolerance around the selected precursor and its isotopes. The instrument was run in data dependent mode by using Orbitrap and an ion trap with […] cycles.
The raw data were analyzed by using Proteome Discoverer (Version 1.4.0.288. Thermo Fisher Scientific). The MS/MS spectra were searched with the Mascot search engine against the NCBI bacteria database 2014 (with 29,574 sequence entries). The peptides were generated from a Lys-C and tryptic digestion and the precursor mass tolerance was set as 25 ppm, and 0.6 Da for fragment mass tolerances. The oxidation of methionine and deamidation of N, Q were set as the dynamic modification, and the carbamidomethylation of cysteine-C as the static modification. The peptide spectral matches (PSMs) were validated by using a percolator based on q-values at a 1% false discovery rate (FDR). For protein identification, a high-confidence database search with a peptide target FDR (strict) of 0.1%, and target FDR (relaxed) 0.5% and ranked 1 peptides were used for peptide filtering. Identified peptides were grouped into individual protein clusters by scaffolding.
Peptide quantitation was carried out by using Progenesis LC-MS (version 4.1, Nonlinear) and as described in Babaei, F. et al. J. Proteome Res. Eversion, (2013). […] Following a statistical analysis, processing was carried out by using transformed “log-like” […] calculations of all the detected features. The total cumulative abundance was calculated by summing the abundance of all peptides that belonged to a respective protein. […]

[7] = test system: Methicillin-resistant S. aureus ATCC BAA-41
Method: as §1, §2

[8] = test system: Acinetobacter baumannii ATCC 19606
Method: as §1, §2

`CC[C@H](C)[C@H](N)C(=O)N[C@@H](CCCNC(=N)N)C(=O)N[C@H](C(=O)N[C@H](C(=O)N[C@@H](CC(C)C)C(=O)N[C@@H](CCCNC(=N)N)C(=O)N[C@@H](C)C(=O)N[C@@H](CCC(N)=O)C(=O)NCC(=O)N[C@@H](C)C(=O)N[C@@H](CC(C)C)C(=O)N[C@@H](CCCCN)C(=O)N[C@H](C(=O)O)[C@@H](C)CC)[C@@H](C)CC)[C@@H](C)CC` [Peptide A, IRIILRAQGALKI] (H-IRIILRAQGALKI-OH; N-terminus and C-terminus assumed) was tested, and the MICs [1] was 34.1 µM, the “toxicity / antimicrobial activity against bacteria” value [2] was “demonstrated toxicity against both Gram positive and negative bacteria” and the MICs [3] was 3.4 µM. The MICs [4] was 21.8 µM, the MICs [5] was 13.7 µM and the MICs [6] was 13.7 µM. For the same compound, the “expression of CPX two component pathway proteins DsbC, PpiA and FkpA” value (E. tarda) was “down-regulated”, the “expression of DegQ, RpsO and YfiO (downstream proteins of the RpoE pathway)” value (E. tarda) was “up-regulation” and the “expression of Peptidyl-prolyl isomerase family members PpiA, PpiB, FkpA and SurA” value (E. tarda) was “highly suppressed”. For the same compound, the “expression of proteins involved in outer membrane assembly, peptidoglycan synthesis, and metal ion binding” value (E. tarda) was “induced”, the “proteins differentially expressed (at least one-fold difference) of 251 high confidence proteins” value (E. tarda) was 74 and the MICs [7] was 21.8 µM. The MICs [8] was 6.8 µM.
